We go through 4 compounds from ChEMBL document CHEMBL1152926, “Terpenoid constituents of Abies chensiensis with potential anti-inflammatory activity” (J Nat Prod, 2009).

The term IC50 denotes the point on the concentration scale where inhibition reaches its midpoint.

Each structure is given as a SMILES string. ≈ marks a conversion by molar mass, not a printed value.

In test [1] the test system is RAW264.7. In words: Antiinflammatory activity in mouse RAW264.7 cells assessed as inhibition of LPS-induced nitric oxide production. Format: functional, cell-based.
The subject of test [2] is RAW264.7. As to the kind of experiment: Cytotoxicity against mouse RAW264.7 cells. Format: cell-based.

Regarding `C=C[C@@](C)(O)[C@H]1C[C@@H]2[C@@]3(C)CCCC(C)(C)[C@@H]3CC[C@@]2(C)O1`, the IC50 in test [1] amounted to 1.9 µg/mL (≈ 6.2 µM); in test [2], 0.6 µg/mL (≈ 1.96 µM).
`C=C[C@@](C)(O)CC[C@H]1C(=C)CC[C@H]2C(C)(C)CCC[C@]12C` [MANOOL]: the IC50 turned out to be 9.6 µg/mL (≈ 33 µM) in test [1] and 32.3 µg/mL (≈ 111 µM) in test [2].
For the compound `CC1=CC(O)(C[C@@H](C)C2=CC[C@@]3(C)C4=C(CC[C@]23C)[C@@]2(C)CCC(=O)C(C)(C)[C@@H]2CC4)OC1=O` (some centres not stated) [NEOABIESLACTONE E], the figures for the IC50 in test [1] and in test [2] were 9.1 µg/mL (≈ 19.5 µM) and 20 µg/mL (≈ 42.9 µM), respectively.
Turning to `N=C(N)NN` [PIMAGEDINE], the IC50 in test [1] is 3.4 µg/mL (≈ 45.9 µM).
